Laboratory results: patent US20260232662A1, “MIR-124 INDUCER, AND PREPARATION METHOD THEREFOR AND USE THEREOF” (NANJING SYNNOCARE PHARMACEUTICAL TECHNOLOGY CO., LTD., priority 2023, published 2026)

What follows are molecules tested on miR-124 (assay: Induction of miR-124 expression in PBMC cells (qPCR)). Conditions: Homo sapiens, 72 h, 0.1 μM compound, human PBMCs stimulated with PMA/ionomycin, miR-191 reference gene, read-out: miR-124 expression, Fold change vs DMSO.
Assay type: cell-based
Method: This study evaluated the ability of the compound of the present invention to influence miR-124 transcriptional activity in vitro. The experiment analyzed miR-124 expression in human PBMCs (Sailybio) using quantitative PCR (qPCR).
Thawed human PBMCs (1 mL) were added to 19 mL of culture medium (RPMI1640+10% hFBS+1‰ 2-mercaptoethanol) and the PBMCs were incubated in a cell culture incubator for 30 minutes. The PBMCs were collected and the cells (3.0*10^6 cells/well/3 mL) were resuspended in medium containing PMA (10 ng/mL; Invivogen) and ionomycin (200 ng/mL; Invivogen). The cells were incubated in a 6-well plate for 48 hours. Diluted compound was added to the cells to achieve a final concentration of 0.1 μM. After 72 hours, the samples were centrifuged and the cells were collected.
Total miRNA was extracted from the cells using the MiPure Cell/Tissue miRNA Kit (Vazyme) according to the manufacturer's instructions, followed by purification. The purified samples were treated with genomic DNA elimination buffer, and reverse transcription was performed using a GeneAmp PCR System. The resulting cDNA was subjected to quantitative real-time PCR (qPCR) analysis on a QuantStudio™ 7 Flex Real-Time PCR System. Data analysis was performed using the QuantStudio 7 software with default settings to automatically determine Ct values, and the results were exported. In this assay, miR-191 was used as the reference gene, and the DMSO-treated group served as the control. The relative expression of miR-124 was calculated using the following formula: […]
`FC(F)(F)Oc1ccc(Nc2nc3cc(Br)cc(Cl)c3n3ccnc23)cc1` [Compound B23, 7-bromo-9-Chloro-N-(4-(trifluoromethoxy)phenyl)imidazolo [1,2-a]quinoxalin-4-amine] showed a fold induction at 0.1 µM of 25.2. `FC(F)(F)Oc1ccc(Nc2nc3cc(Cl)c(Cl)cc3n3ccnc23)cc1` [Compound B24, 7,8-dichloro-N-(4-(trifluoromethoxy)phenyl)imidazolo [1,2-a]quinoxalin-4-amine] gave a fold induction at 0.1 µM of 26.7. For `Fc1cc2nc(Nc3ccc(OC(F)(F)F)cc3)c3nccn3c2cc1Cl` [Compound B25, 8-chloro-7-fluoro-N-(4-(trifluoromethoxy)phenyl)imidazolo [1,2-a]quinoxalin-4-amine], the fold induction at 0.1 µM was 23.4. In the case of `Fc1cc(F)c2c(c1)nc(Nc1ccc(OC(F)(F)F)cc1)c1nccn12` [Compound B30, 7,9-difluoro-N-(4-(trifluoromethoxy)phenyl)imidazolo [1,2-a]quinoxalin-4-amine], the fold induction at 0.1 µM is reported as 22.5. `Fc1cc(Cl)cc2nc(Nc3ccc(OC(F)(F)F)cc3)c3nccn3c12` [Compound B31, 7-chloro-9-fluoro-N-(4-(trifluoromethoxy)phenyl)imidazolo [1,2-a]quinoxalin-4-amine] gave a fold induction at 0.1 µM of 24.4. Work on `Fc1cc(Br)cc2nc(Nc3ccc(OC(F)(F)F)cc3)c3nccn3c12` [Compound B32, 7-bromo-9-fluoro-N-(4-(trifluoromethoxy)phenyl)imidazolo [1,2-a]quinoxalin-4-amine] yielded a fold induction at 0.1 µM of 19.7. For `FC(F)(F)c1ccc(Nc2nc3cccc(Cl)c3n3ccnc23)cc1` [Compound B49, 9-chloro-N-(4-(trifluoromethyl)phenyl)imidazolo [1,2-a]quinoxalin-4-amine], the fold induction at 0.1 µM was 32. For `FC(F)(F)Sc1ccc(Nc2nc3cccc(Cl)c3n3ccnc23)cc1` [Compound B50, 9-chloro-N-(4-(trifluoromethylthio)phenyl)imidazolo [1,2-a]quinoxalin-4-amine], the fold induction at 0.1 µM was 21.3. `FC1(F)Oc2ccc(Nc3nc4cccc(Cl)c4n4ccnc34)cc2O1` [Compound B52, 9-chloro-N-(2,2-difluorobenzo[d] [1,3]dihydroxy-5-yl) imidazolo[1,2-a]quinoxalin-4-amine] showed a fold induction at 0.1 µM of 30.2. In the case of `Fc1cc(Nc2nc3cccc(Cl)c3n3ccnc23)ccc1C(F)(F)F` [Compound B53, 9-chloro-N-(3-Fluoro-4-(trifluoromethyl)phenyl)imidazolo [1,2-a]quinoxalin-4-amine], the fold induction at 0.1 µM is reported as 36.8. `Fc1cc(Nc2nc3cccc(Cl)c3n3ccnc23)ccc1OC(F)(F)F` [Compound B55, 9-chloro-N-(3-Fluoro-4-(trifluoromethoxy)phenyl)imidazolo [1,2-a]quinoxalin-4-amine] showed a fold induction at 0.1 µM of 36.3. `FC(F)(F)Oc1ccc(Nc2nc3cccc(Cl)c3n3ccnc23)cc1Cl` [Compound B56, 9-chloro-N-(3-chloro-4-(trifluoromethoxy)phenyl)imidazolo [1,2-a]quinoxalin-4-amine] showed a fold induction at 0.1 µM of 40.7. With `FC(F)Oc1ccc(Nc2nc3cccc(Cl)c3n3ccnc23)cc1` [Compound B59, 9-chloro-N-(4-(difluoromethoxy)phenyl)imidazolo [1,2-a]quinoxalin-4-amine] the fold induction at 0.1 µM was 25.4. Molecule `FS(F)(F)(F)(F)c1ccc(Nc2nc3cccc(Cl)c3n3ccnc23)cc1` [Compound B60, 9-chloro-N-(4-(thiopentafluoride)phenyl)imidazolo[1,2-a]quinoxalin-4-amine] has a fold induction at 0.1 µM of 24.8. `CSc1ccc(Nc2nc3cccc(Cl)c3n3ccnc23)cc1` [Compound B61, 9-chloro-N-(4-(methylthio)phenyl) imidazolo [1,2-a]quinoxalin-4-amine] showed a fold induction at 0.1 µM of 19.9. Molecule `FC(F)(F)c1ccc(Nc2nc3cccc(Cl)c3n3ccnc23)nc1` [Compound B67, 9-chloro-N-(5-(trifluoromethyl)pyridin-2-yl) imidazolo [1,2-a]quinoxalin-4-amine] has a fold induction at 0.1 µM of 23.4. `Fc1cccc2nc(Nc3ccc4c(c3)OC(F)(F)O4)c3nccn3c12` [Compound B75, 9-fluoro-N-(2,2-difluorobenzo[d] [1,3]dihydroxy-5-yl) imidazolo[1,2-a] quinoxalin-4-amine] was tested, and the fold induction at 0.1 µM was 29.5. Molecule `Fc1cc(Nc2nc3cccc(F)c3n3ccnc23)ccc1OC(F)(F)F` [Compound B76, 9-fluoro-N-(3-fluoro-4-(trifluoromethoxy)phenyl) imidazolo[1,2-a] quinoxalin-4-amine] has a fold induction at 0.1 µM of 18.5. Molecule `Fc1cccc2nc(Nc3ccc(OC(F)(F)F)c(Cl)c3)c3nccn3c12` [Compound B77, 9-fluoro-N-(3-chloro-4-(trifluoromethoxy)phenyl) imidazolo[1,2-a]quinoxalin-4-amine] has a fold induction at 0.1 µM of 23.1. In the case of `Fc1cccc2nc(Nc3ccc(C(F)(F)F)cc3)c3nccn3c12` [Compound B78, 9-fluoro-N-(4-(trifluoromethyl)phenyl) imidazolo[1,2-a] quinoxalin-4-amine], the fold induction at 0.1 µM is reported as 14.9. `Fc1cc(Nc2nc3cccc(F)c3n3ccnc23)ccc1C(F)(F)F` [Compound B79, 9-fluoro-N-(3-fluoro-4-(trifluoromethyl)phenyl) imidazolo[1,2-a] quinoxalin-4-amine] was tested, and the fold induction at 0.1 µM was 22.3. With `Fc1cccc2nc(Nc3ccc(C(F)(F)F)c(Cl)c3)c3nccn3c12` [Compound B80, 9-fluoro-N-(3-chloro-4-(trifluoromethyl)phenyl) imidazolo[1,2-a] quinoxalin-4-amine] the fold induction at 0.1 µM was 17.2. With `Fc1cc(Cl)cc2nc(Nc3ccc4c(c3)OC(F)(F)O4)c3nccn3c12` [Compound B87, 7-chloro-9-fluoro-N-(2,2-difluorobenzo[d] [1,3]dihydroxy-5-yl)imidazo[1,2-a] quinoxalin-4-amine] the fold induction at 0.1 µM was 15.8. Molecule `Fc1cc(Nc2nc3cc(Cl)cc(F)c3n3ccnc23)ccc1OC(F)(F)F` [Compound B88, 7-chloro-9-fluoro-N-(3-fluoro-4-(trifluoromethoxy)phenyl) imidazolo[1,2-a] quinoxalin-4-amine] has a fold induction at 0.1 µM of 20.1. `Fc1cc(Cl)cc2nc(Nc3ccc(OC(F)(F)F)c(Cl)c3)c3nccn3c12` [Compound B89, 7-chloro-9-fluoro-N-(3-chloro-4-(trifluoromethoxy)phenyl) imidazolo[1,2-a] quinoxalin-4-amine] showed a fold induction at 0.1 µM of 22.3. Molecule `Fc1cc(Cl)cc2nc(Nc3ccc(C(F)(F)F)cc3)c3nccn3c12` [Compound B90, 7-chloro-9-fluoro-N-(4-(trifluoromethyl)phenyl) imidazolo[1,2-a] quinoxalin-4-amine] has a fold induction at 0.1 µM of 24.9. With `Fc1cc(Nc2nc3cc(Cl)cc(F)c3n3ccnc23)ccc1C(F)(F)F` [Compound B91, 7-chloro-9-fluoro-N-(3-fluoro-4-(trifluoromethyl)phenyl) imidazolo[1,2-a] quinoxalin-4-amine] the fold induction at 0.1 µM was 25.7. `Fc1cc(Cl)cc2nc(Nc3ccc(C(F)(F)F)c(Cl)c3)c3nccn3c12` [Compound B92, 7-chloro-9-fluoro-N-(3-chloro-4-(trifluoromethyl)phenyl) imidazolo[1,2-a] quinoxalin-4-amine] showed a fold induction at 0.1 µM of 27.1. `FC1(F)Oc2ccc(Nc3nc4cc(Cl)cc(Cl)c4n4ccnc34)cc2O1` [Compound B93, 7,9-dichloro-N-(2,2-difluorobenzo [d][1,3]dihydroxy-5-yl) imidazolo[1,2-a] quinoxalin-4-amine] was tested, and the fold induction at 0.1 µM was 19.1. `Fc1cc(Nc2nc3cc(Cl)cc(Cl)c3n3ccnc23)ccc1OC(F)(F)F` [Compound B94, 7,9-dichloro-N-(3-fluoro-4-(trifluoromethoxy)phenyl) imidazolo[1,2-a] quinoxalin-4-amine] was tested, and the fold induction at 0.1 µM was 26.4. `FC(F)(F)Oc1ccc(Nc2nc3cc(Cl)cc(Cl)c3n3ccnc23)cc1Cl` [Compound B95, 7,9-dichloro-N-(3-chloro-4-(trifluoromethoxy)phenyl) imidazolo[1,2-a] quinoxalin-4-amine] was tested, and the fold induction at 0.1 µM was 24.8. With `FC(F)(F)c1ccc(Nc2nc3cc(Cl)cc(Cl)c3n3ccnc23)cc1` [Compound B96, 7,9-dichloro-N-(4-(trifluoromethyl)phenyl) imidazolo[1,2-a] quinoxalin-4-amine] the fold induction at 0.1 µM was 23.2. `FC(F)(F)c1ccc(Nc2nc3cc(Cl)cc(Cl)c3n3ccnc23)cc1Cl` [Compound B98, 7,9-dichloro-N-(3-chloro-4-(trifluoromethyl)phenyl) imidazolo[1,2-a] quinoxalin-4-amine] was tested, and the fold induction at 0.1 µM was 22.9. For `FC(F)(F)Sc1ccc(Nc2nc3cc(Cl)cc(Cl)c3n3ccnc23)cc1` [Compound B99, 7,9-dichloro-N-(4-(trifluoromethylthio)phenyl) imidazolo[1,2-a] quinoxalin-4-amine], the fold induction at 0.1 µM was 17.6. Work on `FC1(F)Oc2ccc(Nc3nc4ccc(Cl)cc4n4ccnc34)cc2O1` [Compound B100, 8-chloro-N-(2,2-difluorobenzo [d][1,3]dihydroxy-5-yl) imidazolo[1,2-a] quinoxalin-4-amine] yielded a fold induction at 0.1 µM of 19.6. In the case of `Fc1cc(Nc2nc3ccc(Cl)cc3n3ccnc23)ccc1OC(F)(F)F` [Compound B101, 8-chloro-N-(3-fluoro-4-(trifluoromethoxy)phenyl) imidazolo[1,2-a] quinoxalin-4-amine], the fold induction at 0.1 µM is reported as 24.7.
